This note sets out measurements from PMC8979346 (RSC Advances, 2022).

One assay addresses hCA II (Homo sapiens, UniProt P00918). The assay can be described thus: Carbonic anhydrase II inhibition activity. The class given is biochemical.
For a further assay, the target named is hCA XII (Homo sapiens, UniProt O43570). The assay can be described thus: Carbonic anhydrase XII inhibition activity. The format is biochemical.
The next assay addresses hCA IX (Homo sapiens, UniProt Q16790). The assay can be described thus: biochemical. The note with it: for IC50: IC50 (μM) ± SEM CA IX, ± SEM.

SMILES strings stand for the structures. A value given as a limit tells only on which side of the number the result lay.

hCA XII, sequence (O43570 25-354): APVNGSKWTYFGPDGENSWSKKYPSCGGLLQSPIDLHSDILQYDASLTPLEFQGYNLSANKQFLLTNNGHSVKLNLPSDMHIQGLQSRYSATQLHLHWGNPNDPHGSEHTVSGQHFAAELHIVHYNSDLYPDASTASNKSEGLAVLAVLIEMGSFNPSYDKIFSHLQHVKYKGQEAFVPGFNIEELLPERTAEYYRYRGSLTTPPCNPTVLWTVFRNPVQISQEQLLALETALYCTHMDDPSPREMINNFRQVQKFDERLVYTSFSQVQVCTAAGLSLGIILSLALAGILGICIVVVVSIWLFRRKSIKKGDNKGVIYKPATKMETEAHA

On to `Cc1ccc(S(=O)(=O)NCc2ccccc2)cc1` [Compound 3f, N-benzyl-4-methylbenzenesulfonamide], for which the values for the 50% inhibitory concentration (IC50) on hCA II, against hCA XII and against hCA IX (CA IX) were 1.07 ± 0.82 µM, 0.86 ± 0.28 µM and 1.98 ± 0.61 µM, respectively.

With `Cc1ccc(S(=O)(=O)NNc2ccccc2)cc1` [Compound 3h, 4-Methyl-N′-phenylbenzenesulfonohydrazide], the IC50 came to 0.52 ± 0.44 µM against hCA II, 1.08 ± 0.62 µM at hCA XII and 0.484 ± 1.4 µM against hCA IX (CA IX).

Turning to `Cc1ccc(S(=O)(=O)Nc2ccc(C)c(C)c2)cc1` [Compound 3j, N-(3,4-Dimethylphenyl)-4-methylbenzenesulfonamide], the half-maximal inhibitory concentration (IC50) is 2.5 ± 1.5 µM against hCA II, 1.12 ± 1 µM against hCA XII and 0.62 ± 0.2 µM against hCA IX (CA IX).

For the molecule `Cc1ccc(S(=O)(=O)Nc2c(C)cccc2C)cc1` [Compound 3c, N-(2,6-Dimethylphenyl)-4-methylbenzenesulfonamide], the IC50 on hCA II worked out at 1.55 ± 0.8 µM; against hCA XII it was 0.7 ± 0.2 µM; on hCA IX (CA IX) it was 1.06 ± 0.63 µM.

With `Cc1ccc(S(=O)(=O)Nc2cc(C)ccc2C)cc1` [Compound 3b, N-(2,5-Dimethylphenyl)-4-methylbenzenesulfonamide], the 50% inhibitory concentration (IC50) on hCA XII was determined as 1.03 ± 0.23 µM; against hCA IX (CA IX), 1.65 ± 1.3 µM.

`COc1ccc(CCNS(=O)(=O)c2ccc(C)cc2)cc1OC` [Compound 3l, N-(3,4-Dimethoxyphenethyl)-4-methylbenzenesulfonamide]: the “% inhibition CA II” value at hCA II (CA II, at 100 μM) is 32%. The inhibition at 100 µM at hCA II (read-out: % inhibition CA II, CA II, at 100 μM) was less than 50%. Moreover, the IC50 on hCA XII was 1.17 ± 1 µM; against hCA IX (CA IX), 0.764 ± 0.54 µM.

With `Cc1ccc(S(=O)(=O)Nc2ccccc2)cc1` [Compound 3a, 4-Methyl-N-phenylbenzenesulfonamide], the IC50 against hCA II worked out at 1.3 ± 0.51 µM; on hCA IX (CA IX), 1.2 ± 0.75 µM.

The molecule `COc1ccc(S(=O)(=O)NNc2ccccc2)cc1` [Compound 3i, 4-Methoxy-N′-phenylbenzenesulfonohydrazide] showed a half-maximal inhibitory concentration (IC50) against hCA II of 2.76 ± 1.1 µM. Besides, at hCA XII (CA XII, at 100 μM), the “% inhibition CA XII” value was 27%.

For the molecule `COc1ccc(S(=O)(=O)NC(c2ccccc2)c2ccccc2)cc1` [Compound 3m, N-Benzhydryl-4-methoxybenzenesulfonamide], the 50% inhibitory concentration (IC50) came out at 0.507 ± 0.4 µM at hCA II and 1.4 ± 0.57 µM on hCA XII.

Consider `Cc1ccc(S(=O)(=O)NC(c2ccccc2)c2ccccc2)cc1` [Compound 3g, N-Benzhydryl-4-methylbenzenesulfonamide], for which the values for the half-maximal inhibitory concentration (IC50) at hCA II, at hCA XII and on hCA IX (CA IX) were 0.863 ± 0.54 µM, 1.3 ± 0.78 µM and 0.78 ± 0.83 µM, respectively.

Consider `COc1ccc(S(=O)(=O)Nc2ccccc2)cc1` [Compound 3k, 4-Methoxy-N-phenylbenzenesulfonamide], for which the concentration for half-maximal inhibition (IC50) against hCA II came to 1.74 ± 0.54 µM; against hCA XII, 1.14 ± 0.37 µM.

Molecule `CCN(CC)c1ccc(NS(=O)(=O)c2ccc(C)cc2)cc1` [Compound 3e, N-(4-(Diethylamino)phenyl)-4-methylbenzenesulfonamide] gave a half-inhibitory concentration (IC50) on hCA XII of 0.63 ± 0.14 µM. The “% inhibition CA IX” value at hCA IX (CA IX, at 100 μM) is 31%. In addition, the inhibition at 100 µM at hCA IX (read-out: % inhibition CA IX, CA IX, at 100 μM) was less than 31%.

Broadly, the IC50 is the concentration that gives 50% inhibition. Read a high IC50 as weaker potency. A word on the inhibition: it is the relative decrease from the control value, in per cent.
